In assay [1] the test system is HCT116 human colon cancer cells. Nature of the assay: HCT116 cell proliferation. Type of assay: cell-based.
Assay [2] has as its target Rpn11 (Homo sapiens, UniProt O00487). The assay is described as follows: Rpn11 activity assay with Ub4-peptide substrate. It counts as biochemical. As to conditions: read-out: IC50 Rpn11.
The subject of assay [3] is unfolded protein response in HCT116 cells. Nature of the assay: Unfolded protein response immunoblot. Type of assay: cell-based, human. As to conditions: HCT116, 6 hours.
For assay [4], the target named is T1, MMP-2 (Homo sapiens, UniProt P08253).
T1 sequence (P08253 110-660): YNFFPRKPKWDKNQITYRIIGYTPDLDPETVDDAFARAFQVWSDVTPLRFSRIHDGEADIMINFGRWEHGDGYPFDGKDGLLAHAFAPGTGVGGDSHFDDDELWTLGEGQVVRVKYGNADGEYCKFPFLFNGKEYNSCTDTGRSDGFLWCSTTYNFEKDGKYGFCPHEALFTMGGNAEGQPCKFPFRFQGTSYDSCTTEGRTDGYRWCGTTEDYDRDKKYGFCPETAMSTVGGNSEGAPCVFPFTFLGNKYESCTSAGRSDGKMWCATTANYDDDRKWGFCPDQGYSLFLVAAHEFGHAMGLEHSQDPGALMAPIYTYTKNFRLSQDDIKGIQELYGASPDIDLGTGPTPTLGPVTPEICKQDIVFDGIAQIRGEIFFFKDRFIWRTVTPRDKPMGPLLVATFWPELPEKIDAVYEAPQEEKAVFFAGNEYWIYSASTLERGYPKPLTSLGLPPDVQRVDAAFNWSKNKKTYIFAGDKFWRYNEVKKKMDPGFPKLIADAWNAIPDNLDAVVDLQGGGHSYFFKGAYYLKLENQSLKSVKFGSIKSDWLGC
Nature of the assay: MMP-2 assay. Type of assay: biochemical. Conditions: read-out: IC50 MMP-2.

In assay [5] the target is Human carbonic anhydrase II (hCAII) (Homo sapiens, UniProt P00918). The assay is described as follows: hCAII assay. It counts as biochemical. Conditions: read-out: IC50 hCAII; 10 nM hCAII, pH 8.0.
Assay [6] deals with WT RPE1 cells. Nature of the assay: RPE1 WT cell proliferation. Type of assay: cell-based. Conditions: WT RPE cells, 72 hours.
The subject of assay [7] is HCT116 cells. The assay is described as follows: Cell detachment. As to conditions: ETPs 10 μM, 3 hours.
For assay [8], the system named is bortezomib-resistant (BTZR) RPE1 cells. The assay is described as follows: Bortezomib-resistant RPE1 cell proliferation. Type of assay: cell-based. Conditions: BTZR RPE cells, 72 hours.
Assay [9] deals with c-Myc mRNA in HCT116 cells. Nature of the assay: c-Myc mRNA expression by qRT-PCR. It counts as cell-based, human. As to conditions: 10 μM, 4 hours, normalized to GAPDH. On the technique in general: In qPCR the cycle at which signal appears reflects the starting amount.
The target in assay [10] is T2, AMSH (Homo sapiens, UniProt O95630).
T2 sequence (O95630 1-424): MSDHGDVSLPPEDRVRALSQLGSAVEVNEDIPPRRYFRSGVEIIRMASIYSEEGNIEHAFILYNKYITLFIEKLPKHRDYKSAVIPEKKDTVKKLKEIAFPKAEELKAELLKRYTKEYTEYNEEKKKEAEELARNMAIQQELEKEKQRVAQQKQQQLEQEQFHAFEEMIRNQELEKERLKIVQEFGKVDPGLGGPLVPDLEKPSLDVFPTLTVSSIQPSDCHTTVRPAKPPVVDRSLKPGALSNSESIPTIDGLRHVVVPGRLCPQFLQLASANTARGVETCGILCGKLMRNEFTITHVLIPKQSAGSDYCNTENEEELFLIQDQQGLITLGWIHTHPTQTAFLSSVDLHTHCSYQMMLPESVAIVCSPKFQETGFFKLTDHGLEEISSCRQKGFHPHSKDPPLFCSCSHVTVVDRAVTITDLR
Nature of the assay: AMSH inhibition assay. Conditions: read-out: IC50 AMSH. It counts as biochemical.

Assay [11] relates to NFE2L1 in HCT116 cells. Nature of the assay: Immunoblot of NFE2L1 accumulation. Conditions: HCT116, 6 hours. On the technique in general: Immunoblotting shows a protein as a band on a membrane.
In assay [12] the target is Csn5 (Homo sapiens, UniProt Q92905). Nature of the assay: Csn5 inhibition assay. Type of assay: biochemical. Conditions: read-out: IC50 Csn5.
Assay [13] addresses purified human 26S proteasome (Homo sapiens, UniProt O00487+P28074). Nature of the assay: SDS-PAGE analysis of proteasome activity. It counts as biochemical. Conditions: 37 °C, 2 hours; 20 μM capzimin, 10 μM carfilzomib.
Assay [14] addresses 26S proteasome (Homo sapiens, UniProt O00487). Nature of the assay: Fluorescence polarization protein degradation assay with purified 26S proteasome. Conditions: 37 °C, SOP6, gliotoxin 10 µM each.
The subject of assay [15] is IκB. The assay is described as follows: IκBα degradation assay after TNF-α stimulation. As to conditions: Hela cells, 10 minutes pre-treatment, TNF-α 30 minutes. Type of assay: cell-based, human.
Assay [16] addresses chymotrypsin-like activity of the 20S proteasome (Homo sapiens, UniProt P28074). The assay is described as follows: Suc-LLVY-amc fluorescence assay of chymotrypsin-like activity. As to conditions: 20 µM compound, 20 μM Suc-LLVY-amc, 15 nM 26S proteasome.
Assay [17] deals with ubiquitin conjugates in HCT116 cells. The assay is described as follows: Immunoblot of poly-ubiquitinated species. Conditions: HCT116, 10 μM, 3 hours.
In assay [18] the test system is Cul1 in HCT116 cells. The assay is described as follows: Immunoblot of Nedd8-conjugated Cul1. As to conditions: HCT116, 6 hours.

Consider eight molecules from PMC6309308 (Cell chemical biology, 2018).

Structures are written as SMILES. Values joined by “and” are separate entries in the source; they are usually repeats but may differ in a detail not shown here. Identical values can stand only once.

Regarding `O=C1[C@H]2N(Cc3ccccc3)C(=O)[C@@](Cc3ccccc3)(N1Cc1ccccc1)S2=S` (mixture of isomers) [SOP11, (±)-(1S,4S)-1,2,5-tribenzyl-7-thia-2,5-diazabicyclo[2.2.1]heptane-3,6-dione 7-sulfide], the GI50 in [1] was ~4.7 µM and 4.7 µM; in assay [6], ~8 µM; in assay [8] it was ~8 µM. In addition, the IC50 in assay [2] was 1.3 ± 0.3 µM; in [4] it was > 100 µM; in [5], > 100 µM; in assay [10], 0.9 ± 0.1 µM; in assay [12], 0.6 ± 0.2 µM. In addition, the “unfolded protein response (UPR)” value in assay [3] was “provoked a pronounced UPR”. Moreover, the cell detachment entry in assay [7] is reported as “did not detach cells”. For the same molecule, in assay [9], the “level of c-Myc mRNA” value is recorded as “decreased”. Moreover, the “accumulation of processed NFE2L1” value in assay [11] is reported as “induced accumulation of processed NFE2L1”.
As for `Nc1ncnc2c1ncn2[C@@H]1O[C@H](COP(=O)(O)OP(=O)(O)NP(=O)(O)O)[C@@H](O)[C@H]1O` [AMP-PNP], the “degradation of UbnGST-Wbp2 by 26S proteasome (SDS-PAGE)” value (“degradation of UbnGST-Wbp2” below) in assay [13] is listed as “blocked”.
In the case of `Nc1ncnc2c1ncn2[C@@H]1O[C@H](CO[P@](=O)(O)O[P@](=O)(O)O[P@@](=O)(O)S)[C@@H](O)[C@H]1O` [ATPγS], the “effect on decline in fluorescence polarization (K48UbnGST-Wbp2 degradation)” value in [14] is given as “inhibited”.
With `CC(C)C[C@H](NC(=O)[C@H](Cc1ccccc1)NC(=O)c1cnccn1)B(O)O` [bortezomib], the cell detachment entry in [7] is “not observed”.
Regarding `O=C(NCCc1nccs1)c1cnc2c(SSc3cccc4cc(C(=O)NCCc5nccs5)cnc34)cccc2c1` [capzimin], in [7], the cell detachment entry is reported as “not observed”. In assay [13], the “degradation of UbnGST-Wbp2” value is given as “blocked”.
Take `CC(C)C[C@H](NC(=O)[C@H](CCc1ccccc1)NC(=O)CN1CCOCC1)C(=O)N[C@@H](Cc1ccccc1)C(=O)N[C@@H](CC(C)C)C(=O)[C@@]1(C)CO1` [carfilzomib]: the “degradation of UbnGST-Wbp2” value in assay [13] is “blocked”.
For the molecule `CN1C(=O)[C@]2(Cc3cn([C@]45C[C@@]67SS[C@@](CO)(C(=O)N6[C@H]4Nc4ccccc45)N(C)C7=O)c4ccccc34)SS[C@@]1(CO)C(=O)N2C` [chetomin], the “effect on degradation of IκB induced by TNF-α” value in assay [15] was “strongly stabilized IκB”.
Consider `CN1C(=O)[C@]23CC4=CC=C[C@H](O)[C@H]4N2C(=O)[C@@]1(CO)SS3` [gliotoxin], for which the “effect on degradation of IκB induced by TNF-α” value in assay [15] is “strongly stabilized IκB”. Moreover, in assay [7], the cell detachment result is on record as “induce cell detachment”. Moreover, the “inhibition of chymotrypsin-like activity of the proteasome” value in assay [16] is reported as “do not inhibit”. Moreover, the “accumulation of poly-ubiquitinated species” value in [17] was “led to the accumulation of ubiquitinated species”. The “accumulation of Nedd8-conjugated Cul1” value in assay [18] is reported as “caused accumulation of Nedd8-conjugated Cul1”.

Usually GI50 stands for the concentration that inhibits growth by half. The low end stands for more potent growth inhibition, the high end for less potent growth inhibition. As a reminder, the IC50 is the concentration at which inhibition is half-maximal.
